The results in this text go back to patent US7964624B1, “Inhibitors of serine proteases” (priority 2005, dated 2011).

One may read the pKi as the negative decadic logarithm of the Ki, by convention in mol/L.

Molecules are shown by their SMILES. pKi: −log10 of the molar value.

The target in the experiment is T1, full-length hepatitis C viral protein NS3•4A (Hepatitis C virus genotype 1a, UniProt P27958).
T1 construct: hexa-histidine (N); made in house; host or cells: Sf9 insect cells (baculovirus, pVL1392)
Put plainly: biochemical. Also noted: species or system HCV sub-type strain 1a. To be noted: Enzyme Assay 2, HCV NS3 Peptide Cleavage Assay, apparent Ki.
For the compound `CCC[C@H](NC(=O)[C@@H]1C[C@]2(CC(c3cc(C)c(OCC)c(Cl)c3)=NO2)CN1C(=O)[C@@H](NC(=O)[C@@H]1C[C@H]1c1ccccc1)C(C)(C)C)C(=O)C(=O)NC1CC1` [Compound 915], the negative-log Ki (pKi) is > 7.00.
On to `CCC[C@H](NC(=O)[C@@H]1C[C@]2(CC(c3cccc(Cl)c3)=NO2)CN1C(=O)[C@@H](NC(=O)[C@@H]1C[C@H]1c1c[nH]cn1)C(C)(C)C)C(=O)C(=O)NC1CC1` [Compound 918], for which the negative logarithm of the Ki (pKi) is 6.30 to 7.00.
For `CCC[C@H](NC(=O)[C@@H]1C[C@]2(CC(c3cccc(Cl)c3)=NO2)CN1C(=O)[C@@H](NC(=O)[C@H]1C[C@@H]1C1CCCCC1)C(C)(C)C)C(=O)C(=O)NC1CC1` [Compound 920] the value was 6.30 to 7.00.
As to `CCC[C@H](NC(=O)[C@@H]1C[C@]2(CC(c3cccc(Cl)c3)=NO2)CN1C(=O)[C@@H](NC(=O)[C@@H]1CC12CCOCC2)C(C)(C)C)C(=O)C(=O)NC1CC1` [Compound 923], the pKi was > 7.00.
For `CNC(=O)C(=O)[C@H](CC1CC1)NC(=O)[C@@H]1C[C@]2(CC(c3cccc(Cl)c3)=NO2)CN1C(=O)[C@@H](NC(=O)[C@@H]1CC12CCOCC2)C(C)(C)C` [Compound 927] the value was > 7.00; for `CCC[C@H](NC(=O)[C@@H]1C[C@]2(CC(c3cccc(Cl)c3)=NO2)CN1C(=O)[C@@H](NC(=O)[C@H]1C[C@@H]1C1CCCCC1)C(C)(C)C)C(=O)C(=O)NC` [Compound 928], 6.30 to 7.00; for `CCC[C@H](NC(=O)[C@@H]1C[C@]2(CC(c3cccc(Cl)c3)=NO2)CN1C(=O)[C@@H](NC(=O)[C@@H]1CC12CCOCC2)C(C)(C)C)C(=O)C(=O)NC` [Compound 931], 6.30 to 7.00.
`CCC[C@H](NC(=O)[C@@H]1C[C@]2(CC(c3cccc(Cl)c3)=NO2)CN1C(=O)[C@@H](NC(=O)[C@H]1C[C@@H]1C1CCCCC1)C(C)(C)C)C(=O)C(N)=O` [Compound 932]: the negative-log Ki (pKi) was > 7.00.
For `CCOc1cc(OC)c(C2=NO[C@]3(C2)C[C@@H](C(=O)N[C@@H](CC2CC2)C(=O)C(=O)NC)N(C(=O)[C@@H](NC(=O)OC(C)(C)C)C(C)(C)C)C3)cc1Cl` [Compound 942] the value was > 7.00; for `CCOc1cc(OC)c(C2=NO[C@]3(C2)C[C@@H](C(=O)N[C@@H](CC2CC2)C(=O)C(=O)NC)N(C(=O)[C@@H](NC(=O)OC2CCCC2)C(C)(C)C)C3)cc1Cl` [Compound 947], > 7.00; for `CCC[C@H](NC(=O)[C@@H]1C[C@]2(CC(c3cccc(Cl)c3)=NO2)CN1C(=O)[C@@H](NC(=O)[C@H]1C[C@@H]1C1CCCC1)C(C)(C)C)C(=O)C(=O)NC1CC1` [Compound 953], > 7.00.
As to `CCC[C@H](NC(=O)[C@@H]1C[C@]2(CC(c3cccc(Cl)c3)=NO2)CN1C(=O)[C@@H](NC(=O)[C@@H]1C[C@H]1C1CCCC1)C(C)(C)C)C(=O)C(=O)NC1CC1` [Compound 954], the negative logarithm of the Ki (pKi) was > 7.00.
The same measure for `CNC(=O)C(=O)[C@H](CC1CC1)NC(=O)[C@@H]1C[C@]2(CC(c3cccc(Cl)c3)=NO2)CN1C(=O)[C@@H](NC(=O)C1CC1c1ccn(C)n1)C(C)(C)C` (stereo partly shown) [Compound 955]: > 7.00.
On to `CCC[C@H](NC(=O)[C@@H]1C[C@]2(CC(c3cc(C)c(OCC)c(C)c3)=NO2)CN1C(=O)[C@@H](NC(=O)CC1CCCCC1)C(C)(C)OC)C(=O)C(=O)NC1CC1` [Compound 956], for which the pKi was > 7.00.
For `CCC[C@H](NC(=O)[C@@H]1C[C@]2(CC(c3cccc(Cl)c3)=NO2)CN1C(=O)[C@@H](NC(=O)OCC1(C)COC1)C(C)(C)C)C(=O)C(=O)NC1CC1` [Compound 957] the value was 6.30 to 7.00; for `CNC(=O)C(=O)[C@H](CC1CC1)NC(=O)[C@@H]1C[C@]2(CC(c3cccc(Cl)c3)=NO2)CN1C(=O)[C@@H](NC(=O)Cc1cccnc1)C(C)(C)C` [Compound 958], > 7.00; for `CNC(=O)C(=O)[C@H](CC1CC1)NC(=O)[C@@H]1C[C@]2(CC(c3cccc(Cl)c3)=NO2)CN1C(=O)[C@@H](NC(=O)[C@H]1CC1c1ccccc1)C(C)(C)OC` (stereo partly shown) [Compound 959], > 7.00.
The same measure for `CCC[C@H](NC(=O)[C@@H]1C[C@]2(CC(c3cccc(Cl)c3)=NO2)CN1C(=O)[C@@H](NC(=O)[C@H]1CC1c1ccccc1)C(C)(C)OC)C(=O)C(=O)NC1CC1` (stereo partly shown) [Compound 960]: > 7.00.
With `CCC[C@H](NC(=O)[C@@H]1C[C@]2(CC(c3cccc(Cl)c3)=NO2)CN1C(=O)[C@@H](NC(=O)C1(c2ccccc2)CC1)C(C)(C)C)C(=O)C(=O)NC1CC1` [Compound 961], the pKi was < 6.30.
For `CCC[C@H](NC(=O)[C@@H]1C[C@]2(CC(N3CCc4ccccc4C3)=NO2)CN1C(=O)[C@@H](NC(=O)OC1CCCC1)C(C)(C)C)C(=O)C(=O)NC1CC1` [Compound 962] the value was 6.30 to 7.00.
The same measure for `CCC[C@H](NC(=O)[C@@H]1C[C@]2(CC(N3Cc4ccccc4C3)=NO2)CN1C(=O)[C@@H](NC(=O)OC1CCCC1)C(C)(C)C)C(=O)C(=O)NC1CC1` [Compound 964]: 6.30 to 7.00; for `CNC(=O)C(=O)[C@H](CC1CC1)NC(=O)[C@@H]1C[C@]2(CC(N3Cc4ccccc4C3)=NO2)CN1C(=O)[C@@H](NC(=O)OC1CCCC1)C(C)(C)C` [Compound 965]: 6.30 to 7.00; for `CNC(=O)C(=O)[C@H](CC1CC1)NC(=O)[C@@H]1C[C@]2(CC(c3cccc(Cl)c3)=NO2)CN1C(=O)[C@@H](NC(=O)C1(c2ccccc2)CC1)C(C)(C)C` [Compound 966]: < 6.30.
For `[2H][C@@](CCC)(NC(=O)[C@@H]1C[C@]2(CC(c3cc(C)c(OC)c(C)c3)=NO2)CN1C(=O)[C@@H](NC(=O)CC1CCCCC1)C(C)(C)C)C(=O)C(=O)NC1CC1` [Compound 967] the value was > 7.00; for `CCC[C@H](NC(=O)[C@@H]1C[C@]2(CC(c3cc(Cl)ccc3OC)=NO2)CN1C(=O)[C@@H](NC(=O)[C@@H]1C[C@H]1c1ccccc1)C(C)(C)C)C(=O)C(=O)NC1CC1` [Compound 968], > 7.00; for `CCC[C@H](NC(=O)[C@@H]1C[C@]2(CC(c3cc(Cl)ccc3OC)=NO2)CN1C(=O)[C@@H](NC(=O)[C@@H]1C[C@H]1c1ccccc1)C(C)(C)C)C(=O)C(=O)NC` [Compound 969], > 7.00.
Turning to `CCNC(=O)C(=O)[C@H](CC1CC1)NC(=O)[C@@H]1C[C@]2(CC(c3cc(Cl)ccc3OC)=NO2)CN1C(=O)[C@@H](NC(=O)[C@@H]1C[C@H]1c1ccccc1)C(C)(C)C` [Compound 970], the negative-log Ki (pKi) is > 7.00.
Consider `CCOc1cc(OC)c(C2=NO[C@]3(C2)C[C@@H](C(=O)N[C@@H](CC2CC2)C(=O)C(N)=O)N(C(=O)[C@@H](NC(=O)OC(C)(C)C)C(C)(C)C)C3)cc1Cl` [Compound 971], for which the pKi is > 7.00.
The same measure for `CCOc1cc(OC)c(C2=NO[C@]3(C2)C[C@@H](C(=O)N[C@@H](CC2CC2)C(=O)C(N)=O)N(C(=O)[C@@H](NC(=O)CC2CCCCC2)C(C)(C)C)C3)cc1Cl` [Compound 972]: > 7.00; for `CCOc1c(C)cc(C2=NO[C@]3(C2)C[C@@H](C(=O)N[C@@H](CC2CC2)C(=O)C(N)=O)N(C(=O)[C@@H](NC(=O)OC(C)(C)C)C(C)(C)C)C3)cc1C` [Compound 974]: > 7.00; for `CCOc1c(C)cc(C2=NO[C@]3(C2)C[C@@H](C(=O)N[C@@H](CC2CC2)C(=O)C(N)=O)N(C(=O)[C@@H](NC(=O)CC2CCCCC2)C(C)(C)C)C3)cc1C` [Compound 975]: > 7.00.
